Seven molecules from US20250230193A1, “CYCLIC COMPOUND HAVING SELECTIVE KRAS INHIBITORY EFFECT ON HRAS AND NRAS” (CHUGAI SEIYAKU KABUSHIKI KAISHA, priority 2022, published 2025) can be followed below.

Assay [1] addresses GDP-bound HRAS wild-type protein (Homo sapiens, UniProt P01112). The assay can be described thus: Binding to HRAS by surface plasmon resonance (SPR), Single Cycle Kinetics. The conditions noted are these: for HRAS/KRAS (ratio of KD value with respect to HRAS to KD value with respect to KRAS) / HRAS/KRAS (ratio of KD value for HRAS to KD value for KRAS): SPR, GDP-bound HRAS wild-type vs GDP-bound KRAS wild-type.

Assay [2] addresses GDP-bound NRAS wild-type protein (Homo sapiens, UniProt P01111). The assay can be described thus: Binding to NRAS by surface plasmon resonance (SPR), Single Cycle Kinetics. To be noted: for NRAS/KRAS (ratio of KD value with respect to NRAS to KD value with respect to KRAS) / NRAS/KRAS (ratio of KD value for NRAS to KD value for KRAS): SPR, GDP-bound NRAS wild-type vs GDP-bound KRAS wild-type. On the technique in general: Surface plasmon resonance follows binding to a sensor surface in real time, without labels.

*1 amine or outer side, *2 acyl side, *3 side chain or, on linkers, in order; H or OH if unused. Where a SMILES comes first, the peptide text is derived from it. Bridges are numbered along the chain shown (N, C = ends). [ ]: non-standard residue; d: D form. The star is where a group is joined. hPhe(3-Cl-4-CF3) = N[C@@H](CCc1ccc(C(F)(F)F)c(Cl)c1)C(=O)O; NPrPhe(4-CF3) = CCCN[C@@H](Cc1ccc(C(F)(F)F)cc1)C(=O)O; X33 = CCCN([C@@H](CC(C)C)C(=O)[*:2])[*:1]; NMeGly(cPent) = CN[C@H](C(=O)O)C1CCCC1; NMeD = CN[C@@H](CC(=O)O)C(=O)O; Morpholide = C1CN(*)CCO1; Ac4c = NC1(C(=O)O)CCC1; Sar = CNCC(=O)O

GDP-bound HRAS wild-type protein, sequence (P01112 whole entry): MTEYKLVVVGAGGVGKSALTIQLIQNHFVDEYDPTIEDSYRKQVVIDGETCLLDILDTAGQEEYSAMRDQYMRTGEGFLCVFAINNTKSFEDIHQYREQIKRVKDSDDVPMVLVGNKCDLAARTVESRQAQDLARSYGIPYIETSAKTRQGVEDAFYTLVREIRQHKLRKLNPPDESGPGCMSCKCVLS
GDP-bound NRAS wild-type protein, sequence (P01111 whole entry): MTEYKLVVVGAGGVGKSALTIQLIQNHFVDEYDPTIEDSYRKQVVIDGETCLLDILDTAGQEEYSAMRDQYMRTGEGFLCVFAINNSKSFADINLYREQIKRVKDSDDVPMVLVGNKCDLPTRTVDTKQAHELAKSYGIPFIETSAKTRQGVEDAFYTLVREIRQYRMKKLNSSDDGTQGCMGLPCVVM

On to `CCCN(C)C(=O)[C@@H]1CC(=O)N(C)[C@@H](C(C)C)C(=O)N[C@@H]([C@@H](C)CC)C(=O)N(C)CC(=O)N(C)[C@H]2C/C=C\CCN(C2=O)[C@@H](Cc2ccc(C(F)(F)F)cc2)C(=O)N(C)CC(=O)N[C@@H](CCc2ccc(C(F)(F)F)c(OC)c2)C(=O)N2C[C@@H](C)C[C@H]2C(=O)NC2(CCC2)C(=O)N(C)[C@@H](C2CCCC2)C(=O)N1C` [PP2067], for which the “HRAS/KRAS (ratio of KD value with respect to HRAS to KD value with respect to KRAS)” value in assay [1] was “A (a compound having 10 or more and less than 20 is denoted as A)”. The “NRAS/KRAS (ratio of KD value with respect to NRAS to KD value with respect to KRAS)” value in assay [2] is recorded as “AA (a compound having 20 or more is denoted as AA)”.

For the molecule `C#CC[C@H]1C(=O)N[C@@H]([C@@H](C)CC)C(=O)N(C)CC(=O)N(C)[C@H]2C/C=C\CCN(C2=O)[C@@H](Cc2ccc(C(F)(F)F)cc2)C(=O)N(C)CC(=O)N[C@@H](CCc2ccc(C(F)(F)F)c(OC)c2)C(=O)N2C[C@H](OCC)C[C@H]2C(=O)NC2(CCC2)C(=O)N(C)[C@@H](C2CCCC2)C(=O)N(C)[C@H](C(=O)N(C)CCC)CC(=O)N1C` [PP2059], in assay [1], the “HRAS/KRAS (ratio of KD value with respect to HRAS to KD value with respect to KRAS)” value is “A (a compound having 10 or more and less than 20 is denoted as A)”. In assay [2], the “NRAS/KRAS (ratio of KD value with respect to NRAS to KD value with respect to KRAS)” value was “A (a compound having 10 or more and less than 20 is denoted as A)”.

Consider `CCCN(C)C(=O)[C@@H]1CC(=O)N(C)[C@@H](CCOC)C(=O)N[C@@H]([C@@H](C)CC)C(=O)N(C)CC(=O)N(C)[C@H]2C/C=C\CCN(C2=O)[C@@H](Cc2ccc(C(F)(F)F)cc2)C(=O)N(C)CC(=O)N[C@@H](CCc2ccc(C(F)(F)F)c(OC)c2)C(=O)N2C[C@H](OCC)C[C@H]2C(=O)NC2(CCC2)C(=O)N(C)[C@@H](C2CCCC2)C(=O)N1C` [PP2018], for which the “HRAS/KRAS (ratio of KD value for HRAS to KD value for KRAS)” value in assay [1] is “B (a compound having 3 or more and less than 10 is denoted as B)”. In addition, the “NRAS/KRAS (ratio of KD value for NRAS to KD value for KRAS)” value in assay [2] is “A (a compound having 10 or more and less than 20 is denoted as A)”.

As for `CCO[C@@H]1C[C@H]2C(=O)NC3(CC(C)(C)C3)C(=O)N(C)[C@@H](C(CC)CC)C(=O)N(C)[C@H](C(=O)N(C)C)CC(=O)N(C)[C@@H](CC3CC3)C(=O)N[C@@H]([C@@H](C)CC)C(=O)N(C)CC(=O)N(C)[C@H]3C/C=C\CCN(C3=O)[C@@H](Cc3ccc(C(F)(F)F)cc3)C(=O)N(C)CC(=O)N[C@@H](CCc3ccc(C(F)(F)F)c(OC)c3)C(=O)N2C1` [PP2155], in assay [1], the “HRAS/KRAS (ratio of KD value with respect to HRAS to KD value with respect to KRAS)” value is “B (a compound having 3 or more and less than 10 is denoted as B)”. Also, the “NRAS/KRAS (ratio of KD value with respect to NRAS to KD value with respect to KRAS)” value in assay [2] was “A (a compound having 10 or more and less than 20 is denoted as A)”.

As to `CCCN1C(=O)C[C@@H](C(=O)N2CCOCC2)N(C)C(=O)[C@H](C2CCCC2)N(C)C(=O)C2(CCC2)NC(=O)[C@@H]2CCCN2C(=O)[C@H](CCc2ccc(C(F)(F)F)c(Cl)c2)NC(=O)CN(C)C(=O)[C@H](Cc2ccc(C(F)(F)F)cc2)N(CCC)C(=O)CN(C)C(=O)CN(C)C(=O)[C@H](C(C)C)NC(=O)[C@@H]1CC(C)C` [PP1815] ([X33]V[Sar][Sar][NPrPhe(4-CF3)][Sar][hPhe(3-Cl-4-CF3)]P[Ac4c][NMeGly(cPent)][NMeD]-Morpholide; lactam N-11), in assay [1], the “HRAS/KRAS (ratio of KD value for HRAS to KD value for KRAS)” value is “B (a compound having 3 or more and less than 10 is denoted as B)”. The “NRAS/KRAS (ratio of KD value for NRAS to KD value for KRAS)” value in assay [2] was “B (a compound having 3 or more and less than 10 is denoted as B)”.

On to `CCOC[C@H]1C(=O)N[C@@H]([C@@H](C)CC)C(=O)N(C2CC2)CC(=O)N(C)[C@H]2C/C=C\CCN(C2=O)[C@@H](Cc2ccc(C)cc2)C(=O)N(C)CC(=O)N[C@@H](CCc2ccc(Cl)c(Cl)c2)C(=O)N2C[C@H](OCC)C[C@H]2C(=O)NC2(CC(C)(C)C2)C(=O)N(C)[C@@H](CC(C)(C)C)C(=O)N(C)[C@H](C(=O)N(C)C)CC(=O)N1C` [PP2728], for which the “HRAS/KRAS (ratio of KD value with respect to GDP-bound HRAS wild-type protein to KD value with respect to KRAS)” value in assay [1] (KD ratio HRAS/KRAS, class symbols) is “A (a compound having 10 or more and less than 20 is denoted as A)”. In addition, the “NRAS/KRAS (ratio of KD value with respect to GDP-bound NRAS wild-type protein to KD value with respect to KRAS)” value in assay [2] (KD ratio NRAS/KRAS, class symbols) is “AA (a compound having 20 or more is denoted as AA)”.

`CCO[C@@H]1C[C@H]2C(=O)NC3(CC(C)(C)C3)C(=O)N(C)[C@@H](C3CCCC3)C(=O)N(C)[C@H](C(=O)N(C)C)CC(=O)N(C)[C@@H](C(C)C)C(=O)N[C@@H]([C@@H](C)CC)C(=O)N(C)CC(=O)N(C)[C@H]3C/C=C\CCN(C3=O)[C@@H](Cc3ccc(C(F)(F)F)cc3)C(=O)N(C)CC(=O)N[C@@H](CCc3ccc(C(F)(F)F)c(OC)c3)C(=O)N2C1` [PP1979]: the “HRAS/KRAS (ratio of KD value for HRAS to KD value for KRAS)” value in assay [1] is “A (a compound having 10 or more and less than 20 is denoted as A)”. Besides, the “NRAS/KRAS (ratio of KD value for NRAS to KD value for KRAS)” value in assay [2] is given as “AA (a compound having 20 or more is denoted as AA)”.
